Test results as given in patent US7208469B2, “Therapeutic method” (Auckland UniServices Limited, priority 1997, dated 2007).
Positions of bridges follow the written chain, without caps; N, C: chain ends. No end group written: not given here.

Assays:
chondrocytes [1] = test: Chondrocyte monolayer cell cultures: proliferation (cell counts and [3H]-thymidine incorporation); format: cell-based, dog; settings: 24 hours
Method: Fresh cartilage samples were collected from the tibial plateaus and femoral condyles of mature, healthy crossbred dogs (2–4 years; 20–25 kg). The chondrocytes were isolated as previously described (Connective Tissue Research 1988; 18:205–222). Briefly, the chondrocytes were obtained by pronase and collagenase digestion of the cartilage, then the cells were centrifuged, washed and resuspended in media before being cultured in 75 cm^2 tissue culture flasks. The cells were incubated under 5% CO2 and 95% air at 37° C. Confluence was reached by 7–10 days, at which time the cells were subcultured. After trypsinization, the cells are rinsed and resuspended in fresh medium, then seeded at 5×10^4 cells/ml in 24-well plates (0.5 ml cell suspension per well, ie. 1.4×10^4 cells/cm^2). Proliferation studies (cell counts and thymidine incorporation) were performed. Subconfluent population were changed to serum-free medium with 0.1% bovine serum albumin plus the experimental compounds. Cell numbers were analysed at 24 hours after addition of the peptide or vehicle. The cell numbers were determined using a haemocytometer chamber. Results were expressed per well. [^3H]-thymidine incorporation was assessed by pulsing the cells with [^3H]-thymidine (1 uCi/well) two hours before the end of the experimental incubation. The experiment was terminated at 24 hours by washing the cells in media containing cold thymidine followed by the addition of 10% tricholoroacetic acid. The precipitate was washed twice with ethanol:ether (3:1) and the wells desiccated at room temperature. The residue was redissolved in 2 M KOH at 55° C. for 30 mins, neutralised with 1 M HCl, and an aliquot counted for radioactivity. Results were expressed as dpm per well. For both cell counts and thymidine incorporation, each experiment was performed at least 4 different times using experimental groups consisting of at least 6 wells.

chondrocytes [2] = test: Chondrocytes 3-dimensional cell cultures in alginate beads: proliferation (cell counts and 3H-thymidine incorporation); format: cell-based, dog
Method: Alginate head cultures were established as described by Guo, et al. Culture and growth characteristics of chondrocytes encapsulated in alginated beads. Connective Tissue Research 19:277–297 (1989). Briefly the cells were suspended in a solution of 1.25% (wt/vol) alginate in HEPES (20 mM HEPES buffer pH neutral) at a density of 2×10^6 cells/ml> The suspension of chondrocytes were slowly extruded through a 22-gauge needle in a dropwise manner into 40 ml of 0.1 M CaCl2 solution. After instantaneous gelation, the beads were allowed to further polymerise in CaCl2 solution (10 mins, room temperature). The beads were washed sequentially, twice in 0.15 M NaCl and twice in Dulbecco's modified Eagle's medium (DME). After the washing procedure, the beads were placed into 24-well culture plates (10 beads/well) and fed with 1 ml 10% fetal calf serum (FCS) SMW with 5μg/ml ascorbic acid. The cultures were maintained at 37° C. in a humidified atmosphere of 5% CO2 in air. The medium was changed every second day. […] Cell numbers were analysed at day 8 by exposing alginate beads to 50 mM ethylenediaminetetraacetic acid (EDTA) for approximately 10 minutes at 37° C. […] Tritiated-thymidine incorporation (^3H-thymidine) was assessed by pulsing the beads with ^3H-thymidine (1μCi/well) 48 hours before the end of experimental incubation. […] Pellets were resuspended and counted for radioactivity.

[3] = test system: tibiae of normal adult male mice; test: In vivo study: daily subcutaneous injection in mice, tibial growth plate width and tibial length; settings: male Swiss mice, 300 ug/kg/injection s.c., 5 days/week for 4 weeks; for tibial (epiphyseal) growth plate width: mean±sem, controls 0.081-0.094 mm
Method: Two groups of 20 sexually mature male Swiss mice aged between 40 and 50 days and weighing 25–32 g, were given daily subcutaneous injections (50 ul) in the loose skin at the nape of the neck for 5 days/week over 4 consecutive weeks. The treated group was injected with peptide at a dose of 300 ug/kg/injection and the control group was injected with vehicle (water). Animals were housed in a room maintained at 20° C. on 12-hour light/dark cycles. They were fed diet 86 rodent pellets (New Zealand Stockfeed Ltd) ad libitum throughout the experiment. Each animal's weight was recorded at the beginning and end of the experiment. One day after the last injection, animals were sacrificed by cervical dislocation. They study had the approval of the local institutional review board.
The tibiae were dissected free of adherent tissue. Tibial lengths were recorded by measuring the distance between the proximal epiphysis and the distal tibio-fibular junction using an electronic micrometer (Digimatic Calipers, Mitutoyo, Japan). Bones were placed in 10% phosphate-buffered formalin for 24 hours and then dehydrated in a graded series of ethanol solutions and embedded, undecalcified, in methylmethacrylate resin. Tibiae were sectioned longitudinally through the frontal plane and calvariae were cut cross-sectionally at the base of the parietal bone. All sections were 4 um think and were cut on a Leitz microtome using a tungsten-carbide knife (Microknife Sharpening, Utah, USA). Sections were mounted on gelatin-coated slides and air-dried. They were stained with Goldner's tri-chrome and examined using an Olympus BX 50 microscope (Olympus Optical Co Ltd, Tokyo, Japan) which was attached to an Osteomeasure Image Analyzer (Osteometrics Inc. Atlanta, Ga.).
Tibial histomorphometric analyses were made from three adjacent sections one third of the way through the anterior/posterior depth of the proximal tibiae. Epiphyseal growth plate thickness was measured at three sites evenly spaced along its length. All measurements were made by one operator who was blinded to the treatment group of each bone.

Substance: Amylin (KCNTATCATQRLANFLVHSSNNFGAILSSTNVGSNTY; listed as Rattus norvegicus) [rat amylin sourced from Bachem California]
- thymidine incorporation (DNA synthesis) (chondrocytes [1]; per well, amylin concentration not given, control 20725±997): 25937±1203 dpm
- cell numbers (chondrocytes [1]; per well, mean±sem, amylin concentration not given, control 4.12±0.23, p=0.01): 5.11±0.21 ×10^4
- thymidine incorporation (DNA synthesis) (chondrocytes [2]; day 8, peptide 10^−10M, control 1135±85, p<0.001): 2584±229 dpm
- cell numbers (chondrocytes [2]; day 8, per well, peptide 10^−10M, control 5.58±0.16, p<0.03): 6.07±0.05 ×10^4
- tibial (epiphyseal) growth plate width [3]: 0.108±0.003 mm
- total length of the tibiae ([3]; control 11.31±0.07): 11.67±0.09 mm

Substance: Amylin-(1–8) (KCNTATCA-NH2; disulfide 2-7 (inferred); listed as Rattus norvegicus)
- cell numbers (chondrocytes [1]; peptide 10–8M, control 3.23±0.11, p=0.02): 3.63±0.09 ×10^4
- thymidine incorporation (DNA synthesis) (chondrocytes [1]; peptide 10–8M, control 26859±423, p=0.02): 28932±628 dpm
- tibial (epiphyseal) growth plate width [3]: 0.111 mm

Substance: Adrenomedullin-(27–52) (AHQIYQFTDKDKDNVAPRSKISPQGY; listed as Homo sapiens)
- tibial (epiphyseal) growth plate width [3]: 0.11 mm

Substance: Adrenomedullin (YRQSMNNFQGLRSFGCRFGTCTVQKLAHQIYQFTDKDKDNVAPRSKISPQGY-NH2; disulfide 16-21 (inferred); ends not checked; UniProt P35318 95-146, looked up) [52-amino acid peptide first described by Kitamura et al; synthesized by solid-phase procedures]
- cell numbers (chondrocytes [1]; peptide 10^−9M, control 1.79±0.07, p<0.01): 2.27±0.12 ×10^4
